What was measured:
Format in all cases: in vivo
[1] = system: barnyardgrass (Echinochloa crus-galli); experiment: Test A preemergence, visual plant response rating; details: for Barnyardgrass plant response rating: 125 g ai/ha, preemergence, 0 to 100 scale, 0 no effect, 100 complete control; for Barnyardgrass plant response rating (0 to 100 scale): 500 g ai/ha Preemergence, approx. 10 days
How it was run: (§1)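 Greenhouse pot test in loam–sand soil mix: compound in a surfactant-containing non-phytotoxic solvent applied preemergence (directed soil spray) or postemergence (one- to two-leaf plants, 2–10 cm). Injury scored visually after ~10 days, 0–100.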

[2] = system: ragweed (common ragweed, Ambrosia elatior); experiment: Test A preemergence, visual plant response rating; details: for Ragweed plant response rating: 125 g ai/ha, preemergence, 0 to 100 scale, 0 no effect, 100 complete control; for Ragweed plant response rating (0 to 100 scale): 500 g ai/ha Preemergence, approx. 10 days
How it was run: as §1

[3] = system: kochia (Kochia scoparia); experiment: Test A preemergence, visual plant response rating; details: for Kochia plant response rating: 125 g ai/ha, preemergence, 0 to 100 scale, 0 no effect, 100 complete control; for Kochia plant response rating (0 to 100 scale): 500 g ai/ha Preemergence, approx. 10 days
How it was run: as §1

[4] = system: pigweed (Amaranthus retroflexus); experiment: Test A preemergence, visual plant response rating; details: for Pigweed plant response rating: 125 g ai/ha, preemergence, 0 to 100 scale, 0 no effect, 100 complete control; for Pigweed plant response rating (0 to 100 scale): 500 g ai/ha Preemergence, approx. 10 days
How it was run: as §1

[5] = system: foxtail, giant (giant foxtail, Setaria faberii); experiment: Test A preemergence, visual plant response rating; details: for Foxtail, Giant plant response rating: 125 g ai/ha, preemergence, 0 to 100 scale, 0 no effect, 100 complete control; for Foxtail, Giant plant response rating (0 to 100 scale): 500 g ai/ha Preemergence, approx. 10 days
How it was run: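 Ratings use a 0–100 visual scale (100 = complete control) against untreated controls, scored about 10 days after greenhouse treatment. Test chemicals were formulated in surfactant-containing non-phytotoxic solvent and applied either as soil spray after planting (preemergence) or onto one- to two-leaf, 2–10 cm plants (postemergence).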

[6] = system: Italian ryegrass (Lolium multiflorum); experiment: Test A preemergence, visual plant response rating; details: for Ryegrass, Italian plant response rating: 125 g ai/ha, preemergence, 0 to 100 scale, 0 no effect, 100 complete control; for Ryegrass, Italian plant response rating (0 to 100 scale): 500 g ai/ha Preemergence, approx. 10 days
How it was run: as §1

[7] = system: barnyardgrass (Echinochloa crus-galli); experiment: Test B flooded paddy test, visual plant response rating; details: 250 g ai/ha, Flood, applied to paddy water, 2-leaf stage, evaluated after 13 to 15 days
How it was run: (§2)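 Greenhouse paddy conditions applied: two-leaf plants, a 3 cm flood above the soil surface maintained throughout, and compound added to the water rather than the foliage. Plants were judged visually against controls at 13 to 15 days.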

[8] = system: sedge, umbrella (small-flower umbrella sedge, Cyperus difformis); experiment: as above; details: 250 g ai/ha, Flood, applied to paddy water, 2-leaf stage, evaluated after 13 to 15 days
How it was run: as §2

[9] = system: rice (Oryza sativa); experiment: as above; details: 250 g ai/ha, Flood, applied to paddy water, 2-leaf stage, evaluated after 13 to 15 days
How it was run: as §2

[10] = system: ducksalad (Heteranhera limosa); experiment: as above; details: 250 g ai/ha, Flood, applied to paddy water, 2-leaf stage, evaluated after 13 to 15 days
How it was run: as §2

[11] = system: galium (catchweed bedstraw, Galium aparine); experiment: Test A postemergence, visual plant response rating; details: for Galium plant response rating (0 to 100 scale): 500 g ai/ha, postemergence, 0 is no effect, 100 is complete control; for Galium plant response rating: Postemergence, 125 g ai/ha, 0 to 100 scale (0 no effect, 100 complete control)
How it was run: as §1

[12] = system: corn (Zea mays); experiment: Test A postemergence, visual plant response rating; details: for Corn plant response rating (0 to 100 scale): 500 g ai/ha, postemergence, 0 is no effect, 100 is complete control; for Corn plant response rating: Postemergence, 125 g ai/ha, 0 to 100 scale (0 no effect, 100 complete control)
How it was run: as §1

[13] = system: barnyardgrass (Echinochloa crus-galli); experiment: Test A postemergence, visual plant response rating; details: for Barnyardgrass plant response rating (0 to 100 scale): 500 g ai/ha, postemergence, 0 is no effect, 100 is complete control; for Barnyardgrass plant response rating: Postemergence, 125 g ai/ha, 0 to 100 scale (0 no effect, 100 complete control)
How it was run: as §1

[14] = system: ragweed (common ragweed, Ambrosia elatior); experiment: Test A postemergence, visual plant response rating; details: for Ragweed plant response rating (0 to 100 scale): 500 g ai/ha, postemergence, 0 is no effect, 100 is complete control; for Ragweed plant response rating: Postemergence, 125 g ai/ha, 0 to 100 scale (0 no effect, 100 complete control)
How it was run: as §1

[15] = system: kochia (Kochia scoparia); experiment: Test A postemergence, visual plant response rating; details: for Kochia plant response rating (0 to 100 scale): 500 g ai/ha, postemergence, 0 is no effect, 100 is complete control; for Kochia plant response rating: Postemergence, 125 g ai/ha, 0 to 100 scale (0 no effect, 100 complete control)
How it was run: as §1

[16] = system: blackgrass (Alopecurus myosuroides); experiment: Test A postemergence, visual plant response rating; details: for Blackgrass plant response rating (0 to 100 scale): 500 g ai/ha, postemergence, 0 is no effect, 100 is complete control; for Blackgrass plant response rating: Postemergence, 125 g ai/ha, 0 to 100 scale (0 no effect, 100 complete control)
How it was run: as §1

[17] = system: wheat (Triticum aestivum); experiment: Test A postemergence, visual plant response rating; details: for Wheat plant response rating (0 to 100 scale): 500 g ai/ha, postemergence, 0 is no effect, 100 is complete control; for Wheat plant response rating: Postemergence, 125 g ai/ha, 0 to 100 scale (0 no effect, 100 complete control)
How it was run: as §1

[18] = system: pigweed (Amaranthus retroflexus); experiment: Test A postemergence, visual plant response rating; details: for Pigweed plant response rating (0 to 100 scale): 500 g ai/ha, postemergence, 0 is no effect, 100 is complete control; for Pigweed plant response rating: Postemergence, 125 g ai/ha, 0 to 100 scale (0 no effect, 100 complete control)
How it was run: as §1

[19] = system: foxtail, giant (giant foxtail, Setaria faberii); experiment: Test A postemergence, visual plant response rating; details: for Foxtail, Giant plant response rating (0 to 100 scale): 500 g ai/ha, postemergence, 0 is no effect, 100 is complete control; for Foxtail, Giant plant response rating: Postemergence, 125 g ai/ha, 0 to 100 scale (0 no effect, 100 complete control)
How it was run: as §1

[20] = system: Italian ryegrass (Lolium multiflorum); experiment: Test A postemergence, visual plant response rating; details: for Ryegrass, Italian plant response rating (0 to 100 scale): 500 g ai/ha, postemergence, 0 is no effect, 100 is complete control; for Ryegrass, Italian plant response rating: Postemergence, 125 g ai/ha, 0 to 100 scale (0 no effect, 100 complete control)
How it was run: as §1

SMILES | Barnyardgrass plant response rating [1] | Barnyardgrass plant response rating (0 to 100 scale) [1] | Ragweed plant response rating [2] | Ragweed plant response rating (0 to 100 scale) [2] | Kochia plant response rating [3] | Kochia plant response rating (0 to 100 scale) [3] | Pigweed plant response rating [4] | Pigweed plant response rating (0 to 100 scale) [4] | Foxtail, Giant plant response rating [5] | Foxtail, Giant plant response rating (0 to 100 scale) [5] | Ryegrass, Italian plant response rating [6] | Ryegrass, Italian plant response rating (0 to 100 scale) [6] | Plant response rating, Barnyardgrass (0 to 100 scale, 0 is no effect, 100 is complete control) [7] | Plant response rating, Sedge, Umbrella (0 to 100 scale, 0 is no effect, 100 is complete control) [8] | Plant response rating, Rice (0 to 100 scale, 0 is no effect, 100 is complete control) [9] | Plant response rating, Ducksalad (0 to 100 scale, 0 is no effect, 100 is complete control) [10] | Galium plant response rating (0 to 100 scale) [11] | Galium plant response rating [11] | Corn plant response rating (0 to 100 scale) [12] | Corn plant response rating [12] | further results
CON=C(c1c(O)c(C)nn(C)c1=O)c1ccc(OC)c2ccccc12 [Compound 55] | 0 | 50 | 10 | 80 | 0 | 0 | 0 | 0 | 10 | 90 | 0 | 30 | 0 | 0 | 0 | 0 | 70 | 50 | 30 | 0 | Barnyardgrass plant response rating (0 to 100 scale) [13]: 30; Barnyardgrass plant response rating [13]: 20; Ragweed plant response rating (0 to 100 scale) [14]: 30; Ragweed plant response rating [14]: 0; Kochia plant response rating (0 to 100 scale) [15]: 30; Kochia plant response rating [15]: 10; Blackgrass plant response rating (0 to 100 scale) [16]: 80; Blackgrass plant response rating [16]: 70; Wheat plant response rating (0 to 100 scale) [17]: 20; Wheat plant response rating [17]: 0; Pigweed plant response rating (0 to 100 scale) [18]: 20; Pigweed plant response rating [18]: 0; Foxtail, Giant plant response rating (0 to 100 scale) [19]: 50; Foxtail, Giant plant response rating [19]: 20; Ryegrass, Italian plant response rating (0 to 100 scale) [20]: 70; Ryegrass, Italian plant response rating [20]: 0
CON=C(c1cccc(C(F)(F)F)c1)c1c(O)c(C)nn(C)c1=O [Compound 56] | 0 | 50 | 70 | 50 | 0 | 60 | 30 | 90 | 0 | 40 | 0 | 40 | 0 | 15 | 20 | 30 | 80 | 70 | 0 | 0 | Barnyardgrass plant response rating (0 to 100 scale) [13]: 10; Barnyardgrass plant response rating [13]: 0; Ragweed plant response rating (0 to 100 scale) [14]: 50; Ragweed plant response rating [14]: 10; Kochia plant response rating (0 to 100 scale) [15]: 50; Kochia plant response rating [15]: 20; Blackgrass plant response rating (0 to 100 scale) [16]: 40; Blackgrass plant response rating [16]: 30; Wheat plant response rating (0 to 100 scale) [17]: 0; Wheat plant response rating [17]: 0; Pigweed plant response rating (0 to 100 scale) [18]: 70; Pigweed plant response rating [18]: 50; Foxtail, Giant plant response rating (0 to 100 scale) [19]: 0; Foxtail, Giant plant response rating [19]: 0; Ryegrass, Italian plant response rating (0 to 100 scale) [20]: 50; Ryegrass, Italian plant response rating [20]: 20
CON=C(c1cccc(C#N)c1)c1c(O)c(C)nn(C)c1=O [Compound 57] | 0 | 0 | 0 | 0 | 0 | 10 | 0 | 0 | 0 | 30 | 0 | 0 | 15 | 0 | 15 | 0 | 50 | 10 | 0 | 20 | Barnyardgrass plant response rating (0 to 100 scale) [13]: 0; Barnyardgrass plant response rating [13]: 0; Ragweed plant response rating (0 to 100 scale) [14]: 10; Ragweed plant response rating [14]: 0; Kochia plant response rating (0 to 100 scale) [15]: 50; Kochia plant response rating [15]: 0; Blackgrass plant response rating (0 to 100 scale) [16]: 0; Blackgrass plant response rating [16]: 0; Wheat plant response rating (0 to 100 scale) [17]: 10; Wheat plant response rating [17]: 0; Pigweed plant response rating (0 to 100 scale) [18]: 30; Pigweed plant response rating [18]: 30; Foxtail, Giant plant response rating (0 to 100 scale) [19]: 0; Foxtail, Giant plant response rating [19]: 0; Ryegrass, Italian plant response rating (0 to 100 scale) [20]: 20; Ryegrass, Italian plant response rating [20]: 10
CON=C(c1c(O)c(C)nn(C)c1=O)c1cccc2sccc12 [Compound 58] | 10 | 60 | 60 | 80 | 30 | 60 | 10 | 50 | 60 | 100 | 70 | 100 | 0 | 0 | 0 | 0 | 90 | 80 | 0 | 0 | Barnyardgrass plant response rating (0 to 100 scale) [13]: 50; Barnyardgrass plant response rating [13]: 20; Ragweed plant response rating (0 to 100 scale) [14]: 100; Ragweed plant response rating [14]: 50; Kochia plant response rating (0 to 100 scale) [15]: 70; Kochia plant response rating [15]: 60; Blackgrass plant response rating (0 to 100 scale) [16]: 90; Blackgrass plant response rating [16]: 80; Wheat plant response rating (0 to 100 scale) [17]: 80; Wheat plant response rating [17]: 40; Pigweed plant response rating (0 to 100 scale) [18]: 90; Pigweed plant response rating [18]: 70; Foxtail, Giant plant response rating (0 to 100 scale) [19]: 80; Foxtail, Giant plant response rating [19]: 40; Ryegrass, Italian plant response rating (0 to 100 scale) [20]: 90; Ryegrass, Italian plant response rating [20]: 80
CON=C(c1c(O)c(C)nn(C)c1=O)c1cccc2sccc12 [Compound 59] | 0 | 30 | 30 | 100 | 10 | 60 | 0 | 70 | 30 | 70 | 30 | 90 | 0 | 0 | 0 | 0 | 90 | 70 | 20 | 0 | Barnyardgrass plant response rating (0 to 100 scale) [13]: 50; Barnyardgrass plant response rating [13]: 30; Ragweed plant response rating (0 to 100 scale) [14]: 80; Ragweed plant response rating [14]: 60; Kochia plant response rating (0 to 100 scale) [15]: 80; Kochia plant response rating [15]: 80; Blackgrass plant response rating (0 to 100 scale) [16]: 80; Blackgrass plant response rating [16]: 70; Wheat plant response rating (0 to 100 scale) [17]: 0; Wheat plant response rating [17]: 0; Pigweed plant response rating (0 to 100 scale) [18]: 90; Pigweed plant response rating [18]: 80; Foxtail, Giant plant response rating (0 to 100 scale) [19]: 60; Foxtail, Giant plant response rating [19]: 40; Ryegrass, Italian plant response rating (0 to 100 scale) [20]: 100; Ryegrass, Italian plant response rating [20]: 80

From US20210045385A1, “PYRIDAZINONE-SUBSTITUTED KETOXIMES AS HERBICIDES” (FMC Corporation, priority 2018, published 2021)
